Measurements as given in patent publication US7094754B2, “Anti-aging and wound healing compounds” (Kimberly-Clark Worldwide, Inc., priority 2001, dated 2006).
Ends that are not written are not given here.

What was measured:
Type in all cases: cell-based
[1] = test system: neutrophils isolated from human blood; assay: Neutrophil migration assay (transwell); settings: 10 nM, positive control; HSA 0.4%
Experimental: Peptides were synthesized and purified by the Microchemical Facility at Emory University or by SigmaGenesis. All peptides were analyzed by mass spectrometry after HPLC to assess purity. Approximately 0.5–2.0 milligrams of peptide were used to make fresh stock solutions (5 mg/mL in HBSS/HSA) for each migration assay. The peptide stock solutions were used to make more dilute solutions (1 mg/mL, 100 μg/mL, 10 μg/mL, 1 μg/mL, 100 ng/mL, and 10 ng/mL) in HBSS/HSA for the assays.
Neutrophils were isolated from human blood (collected in Vacutainerm tubes containing EDTA) by layering the blood/EDTA mixture (about 20 mL) on top of two layers of Histopaque™ 1119 (bottom layer, 18 mL) and 1077 (top layer, 7 mL) in 50 mL Falcon tubes. The tubes were centrifuged at 1800 rpm for 30 minutes (no brake). Four layers appeared in the tubes after the spin (from top to bottom layers): plasma, 1077, 1119, and red blood cells. The buffy coat between the plasma and 1077 layers contained lymphocytes, monocytes, and some platelets. The plasma layer, the buffy coat, and most of the 1077 layer was removed and discarded. The 1119 layer that contained the neutrophils was removed and was placed into a clean 50 mL tube. Dulbecco's Phosphate Buffered Saline (DPBS) was added to bring the volume to 50 mL. The cells were centrifuged for 15 minutes at 2100 rpm. The cells were resuspended in 10 mL of DPBS, transferred to 15 mL tubes, and centrifuged again for 10 minutes at 2000 rpm. This process was repeated to wash the cells a second time. After the supernatant was removed, the red blood cells were lysed by adding 6 mL of cold sterile water to each 15 mL of supernatant. Cells were mixed in the water for only 30 seconds. Six mL of cold 2% sterile saline was then added. Cells were centrifuged again for 10 minutes at 2000 rpm. The red supernatant (containing hemoglobin from red blood cells) was removed. This process of red blood cell lysis was repeated two more times to remove all of the red blood cells. After most of the red blood cells were removed, neutrophils were resuspended in 10 mL of HBSS/HSA for counting with trypan blue.
A neutrophil migration assay was performed in duplicate using a 24-well transwell plate (3 μm pore size for membrane). Transwell membranes were pre-moistened with 20–40 μL of HBSS/HSA (0.04–0.4%). Chemotactic solutions (500 μL) were added to the bottom of each well. […] Transwells were then placed into the chemotactic solutions. The plate was placed into the incubator (37° C., 5% CO2) for one hour. Cells that migrated through the membrane were counted using trypan blue.
In the neutrophil migration experiments, neutrophils that were isolated were approximately 95% viable. Neutrophils were resuspended in HBSS/0.4%HSA for this experiment. IL-8 (10 nM in the HBSS/0.4%HSA buffer) was used as a positive control for neutrophil migration.

[2] = Viability assay (MTT) in EpiDerm skin model; settings: human, EpiDerm skin model (MatTek), relative to PBS control, average over 500 μM and 2 mM, read-out: total average viability
Description: FIG. 16 provides a bar graph showing the percent living cells, relative to a positive control, in a skin model after treatment with two concentrations of peptide. The first sample, treated with phosphate buffered saline (PBS), is the positive control used to establish the cell count representing 100% viability. The second sample is a negative control where cells were exposed to 1% Triton-X100, showing that the assay can detect cell death. […] Data shown represent the average of three tests.
The sample containers were transferred to 6 well plates that contained fresh media. All peptides were dissolved in PBS at a final concentration of 10 mM, and 100 μL each peptide solution was pipetted onto the surface of the Epiderm sample container. Incubation was continued for 12 hours at 37° C., 5% CO2. After the incubation period, the sample containers were washed three times with PBS and the sample containers were transferred to a 24 well plate that contained 300 μL of MTT assay media per well (MTT concentration was 1 mg/mL). The colorimetric assay was allowed to develop for three hours (incubation at 37° C., 5% CO2). Sample containers were then transferred to a 24 well culture plate that contained 2 mL of isopropanol per well. Extraction of the colored precipitate occurred over a period of four hours at room temperature. Absorbance readings were taken at 570 nm and 650 nm for each sample. The percent viability of each sample relative to a PBS control was calculated as: 100×(OD570^sam−OD650^sam)/(OD570^con−OD650^con) (6) Routinely, the peptide sample was assayed in triplicate. Results The sequence of matrix metalloproteinase-2 (SEQ ID NO:14) is provided below to facilitate definition of the various domains and regions in matrix metalloproteinases.

[3] = test system: normal human dermal fibroblasts (NHDF); assay: NHDF migration assay (48-well chemotaxis chamber); settings: three hours
Experimental: Normal, human dermal fibroblasts (NHDF) were obtained from Biowhittaker, (Walkersville, Md.) and propagated in T75 flasks in FBM media (500 mL, Biowhittaker) containing insulin, hFGF-b, GA-1000, and fetal bovine serum (10 mL) for up to 12 passages. For the migration assay, NHDF were washed once with 10 mL of Hank's buffered saline solution (HBSS). Three milliliters of trypsin (0.25%) in EDTA were added to the T75 flask for no more than five minutes to remove NHDF from the flask. NHDF in trypsin solution were added to 7 mL of FBM with no supplements added. NHDF were centrifuged for 5 minutes, and the supernatant was removed. NHDF were resuspended in 10 mL of FBM for counting. NHDF were centrifuged for another 5 minutes, and the supernatant was removed. NHDF were resuspended at 1×10^6 cells per mL in FBM without supplements. It was important to use FBM media only in migration assays because the complete media contains fibroblast growth factor and serum, both of which will trigger migration of fibroblasts.
Peptides were synthesized and purified by the Microchemical Facility at Emory University or by SigmaGenesis. All peptides were analyzed by mass spectrometry after HPLC to assess purity. Approximately 0.5–2.0 milligrams of peptide were used to make fresh stock solutions (5 mg/mL in PBS) for each migration assay. The peptide stock solutions in PBS were used to make more dilute solutions (1 mg/mL, 100 μg/mL, 10 μg/mL, 1 μg/mL, 100 ng/mL, 10 ng/mL) in FBM (without supplements) for the migration assays.
Polyvinylpyrrolidone-free polycarbonate membranes with […] pores (Neuroprobe, Inc., Gaithersburg, Md.) were washed with 90% ethanol for 15 minutes and rinsed four times with deionized water. Membranes were then placed into a glass dish containing an aqueous solution of 5 μg/mL gelatin. The glass dish was placed in to a water bath at about 90° C. for one hour. Membranes were removed from the gelatin solution and were allowed to dry for one hour in the 37° C. incubator.
A 48-well chemotaxis chamber (Neuroprobe, Inc., Gaithersburg, Md.) (see FIG. 20) was used for the migration assays. Twenty-eight/μL of each test solution were added to the bottom wells of the chamber in quadruplicate. A gelatin-treated membrane was placed carefully on top of the bottom wells. The gasket and top part of chamber were then placed carefully on top of the membrane. The apparatus was tightened using six thumbscrews. A solution of NHDF containing an estimated cell density (2×10^5 cells per mL) was made by adding 320 μL of the 1×10^6 cells per mL solution to 1.28 mL of FBM (no supplements). Fifty microliters of the 2×10^5 cells per mL NHDF solution were added to the top part of each well in the chamber. The chamber was placed in the incubator at 37° C./5% CO2 for three hours. The chamber was removed, the thumbscrews were removed, and the chamber was turned upside down on a paper towel. […] The membrane was carefully removed. […] The membrane was fixed with methanol and stained using the Diff-Quik Staining Solutions I and II. The nuclei of NHDF are stained purple. The membrane was mounted on a glass slide using cedarwood immersion oil and a cover slip. […] The average number of migrated NHDF in the negative control was subtracted from the experimental (peptide) data and positive control data.

Substance | Percent Neutrophil Migration exp.1 [1] [%] | viability at 12 h [2] [%] | percent of migrated NHDF compared to plasma fibronectin positive control ([3]; 100 μg/mL peptide) [%] | percent of migrated NHDF compared to plasma fibronectin positive control ([3]; 1000 μg/mL peptide) [%]
IL-8: positive control for neutrophil migration (10 nM in HBSS/HSA buffer) [reference compound] | 81 |  |  | 
NYNFFPRKPK [10-mer] |  | 89.6 | 11±0 | 30±2
PRCGNPDVA [9-mer] |  | 95.8 | 16±0 | 32±2
